Earlier results on 1 compound are cited in patent publication USRE50082E1, “(5,6-dihydro)pyrimido[4,5-e]indolizines” (NETHERLANDS TRANSLATIONAL RESEARCH CENTER B.V., priority 2014, dated 2024).

SMILES strings stand for the structures.

For one data set, the system named is human cancer cell lines. The following applies: Colombo et al.; read-out: IC50 proliferation of cancer cell lines from different tumor origin; cited from earlier work.
Another data set relates to A2780. The note with it: mouse xenograft model; cited from earlier work.
Another data set relates to A375. The following applies: mouse xenograft model; cited from earlier work.

`CCc1cccc(CC)c1NC(=O)c1nn(C)c2c1CCc1cnc(Nc3ccc(C(=O)NC4CCN(C)CC4)cc3OC(F)(F)F)nc1-2` [NMS-P715]: the IC50 with human cancer cell lines was not below 1 µM. Also, the “Tumor growth, A2780 xenograft” value in the data set with A2780 was “inhibited tumor growth”. Also, in the data set with A375, the “Tumor growth, A375 xenograft” value was “inhibited tumor growth”.
